Assay results: patent US20240391921A1, “CRYSTAL FORM OF IMIDAZOLINONE DERIVATIVE” (CHENGDU BAIYU PHARMACEUTICAL CO., LTD., priority 2021, published 2024)

What was measured:
[1] = Pharmacokinetic assay in ICR mice; type: in vivo; settings: male ICR mice, iv 1 mg/kg and po 10 mg/kg, plasma by LC/MS/MS
Procedure: ICR mice (purchased from Beijing Viton Lihua Laboratory Animal Technology Co.)
2.2 Experimental procedure • (1) Healthy male ICR mice (18-22 g) were prepared, with 18 mice for each compound which were divided into 2 groups (iv and po groups) of 9 mice each, and 3 mice were selected for blood collection at each time point. • (2) After fasting (free water intake) overnight, the compound of the invention was solubilized (or formed into a suspension) with 5% DMSO, 95% 30% HP-β-CD (v: v) as solvent. The compound was administered via the tail vein (iv, 1 mg/kg) and by gavage (po, 10 mg/kg), respectively. • (3) In the iv group, 0.1 mL of blood was collected from the submandibular vein at 5 min, 15 min, 0.5 h, 1 h, 2 h, 4 h, 8 h, 12 h, and 24 h, respectively, and the blood was anticoagulated with EDTA-K2, and then centrifuged at 4° C. for 5 min to separate the plasma, which was stored at-20° C. before measurement. • (4) In the po group, 0.1 mL of blood was collected from the submandibular vein before and after administration at 15 min, 0.5h, 1h, 2h, 4h, 6h, 8h, 12h and 24h respectively, and processed in the same manner as in the iv group. • (5) The concentration of the compound of the present invention in plasma was determined by a LC/MS/MS method. • (6) The results were calculated and fitted using Analyst 1.6 from AB.

[2] = Dynamic vapor sorption (DVS) test; type: physicochemical
Procedure: The crystalline form I of Compound A prepared in Example 3 was subjected to dynamic vapor sorption test, and the dynamic vapor sorption (DVS) curves were acquired on DVS Intrinsic of SMS (Surface Measurement Systems). The relative humidity at 25° C. was corrected with the deliquescence points of LiCl, Mg (NO3)2, and KCl.

[3] = Solid-state stability (XRPD for physical, HPLC purity for chemical stability); type: physicochemical

SMILES | pharmacokinetic properties [1] | change in sample weight (DVS) ([2]; 0% RH-95% RH-0% RH at 25° C.) | hygroscopicity (DVS) ([2]; 0% RH-95% RH-0% RH at 25° C.) | transformation of crystalline form before and after DVS (XRPD comparison) ([2]; XRPD before and after DVS) | solid-state stability: crystalline transformation (XRPD) and purity (HPLC) ([3]; 25° C./60% RH/open, 1 week) | solid-state stability: crystalline transformation (XRPD) and purity (HPLC) ([3]; 40° C./75% RH/open, 1 week) | solid-state stability: crystalline transformation (XRPD) and purity (HPLC) ([3]; 60° C./close, 1 day) | solid-state stability: crystalline transformation (XRPD) and purity (HPLC) ([3]; 80° C./close, 1 day)
CCn1c(=O)n(C2CCOCC2)c2nc(Nc3cc(F)c(C(N)=O)cc3C)ncc21 [Compound A, 4-((7-ethyl-8-oxo-9-(tetrahydro-2H-pyran-4-yl)-8,9-dihydro-7H-purin-2-yl)amino)-2-fluoro-5-methylbenzamide] | good pharmacokinetic properties |  |  |  |  |  |  | 
CCn1c(=O)n(C2CCOCC2)c2nc(Nc3cc(F)c(C(N)=O)cc3C)ncc21 [crystalline form I, 4-((7-ethyl-8-oxo-9-(tetrahydro-2H-pyran-4-yl)-8,9-dihydro-7H-purin-2-yl)amino)-2-fluoro-5-methylbenzamide] |  | less than 0.2% | free or almost free of hygroscopicity | no transformation of crystalline form occurred | no crystalline transformation or decrease in purity was observed | no crystalline transformation or decrease in purity was observed | no crystalline transformation or decrease in purity was observed | no crystalline transformation or decrease in purity was observed
